# Experimental data from publication PMC3633088 (Chemistry & biology, 2013).
# T1: hASNase3, cleaved (active) form, alpha and beta chains (Homo sapiens, UniProt Q7L266)
# T1 sequence (Q7L266 1-167): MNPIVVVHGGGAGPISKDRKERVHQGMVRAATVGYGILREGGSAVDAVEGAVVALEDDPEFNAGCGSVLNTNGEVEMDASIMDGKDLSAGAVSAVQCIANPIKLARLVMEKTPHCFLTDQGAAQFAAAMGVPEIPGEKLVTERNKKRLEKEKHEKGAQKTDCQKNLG
# T1 sequence (Q7L266 168-308): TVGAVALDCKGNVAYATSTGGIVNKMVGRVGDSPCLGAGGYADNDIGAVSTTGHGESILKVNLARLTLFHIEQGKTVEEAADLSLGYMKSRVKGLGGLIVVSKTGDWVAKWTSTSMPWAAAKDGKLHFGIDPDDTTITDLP
# T2: hASNase3, uncleaved form (human asparaginase 3; hASRGL1/ALP; CRASH) (Homo sapiens, UniProt Q7L266)
# T2 sequence (Q7L266 1-308): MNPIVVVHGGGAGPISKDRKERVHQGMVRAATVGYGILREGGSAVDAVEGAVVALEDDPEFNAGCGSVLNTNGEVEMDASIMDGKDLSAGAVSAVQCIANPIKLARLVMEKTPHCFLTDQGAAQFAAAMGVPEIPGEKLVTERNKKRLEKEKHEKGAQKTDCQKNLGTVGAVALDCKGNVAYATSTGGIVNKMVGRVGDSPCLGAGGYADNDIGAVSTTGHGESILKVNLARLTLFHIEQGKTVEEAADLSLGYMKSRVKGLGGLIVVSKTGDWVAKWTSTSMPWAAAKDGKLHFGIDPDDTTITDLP
# T3: hASNase3 α-chain (human, UniProt Q7L266 1-167)
# T3 sequence (looked up): T1 sequence (Q7L266 1-167)
# B1: Human asparaginase 3 (hASNase3), cleaved form (α- and β-chains) (complex)
# chain 1: T1 sequence (Q7L266 1-167)
# chain 2: T1 sequence (Q7L266 168-308)
# B2: hASNase3 β-chain (domain or fragment, human, UniProt Q7L266 168-308, looked up)
# chain: T1 sequence (Q7L266 168-308)
# Columns and labels:
# [1] = biological target: T1, hASNase3, cleaved (active) form, alpha and beta chains; experiment: asparaginase activity assay; assay type: biochemical; conditions: up to 50 mM; cleaved enzyme
# [2] = biological target: T1, hASNase3, cleaved (active) form, alpha and beta chains; experiment: asparaginase activity assay; assay type: biochemical; conditions: 10 or 50 mM glycine; cleaved enzyme
# [3] = biological target: T2, hASNase3, uncleaved form (human asparaginase 3; hASRGL1/ALP; CRASH); experiment: autocleavage, SDS-PAGE band quantification; assay type: biochemical; conditions: accelerates autoproteolysis; 5 mM glycine, pH 7.5, 25 °C, 42 hours
# [4] = biological target: T1, hASNase3, cleaved (active) form, alpha and beta chains; experiment: X-ray crystal structure, […] Å; assay type: binding; conditions: crystal soaked in 3 M glycine, pH 4.9, <1 minute; substrate site (Arg196, Asp199)
# [5] = biological target: T1, hASNase3, cleaved (active) form, alpha and beta chains; experiment: asparaginase activity assay; assay type: biochemical; conditions: turnover by cleaved enzyme only; data not shown
# [6] = biological target: the molecule itself; experiment: crystal structure
# [7] = biological target: T3, hASNase3 α-chain; experiment: crystal structure
molecule,measurement,setting,value
O=C(O)CO [glycolate],"inhibition, concentration-dependent",[1],"glycolate, glyoxylate, oxalate, L-aspartate, and serine showed a concentration-dependent effect"
NCC(=O)O [glycine],% reduction of asparaginase activity at 10 or 50 mM,[2],~ 50%
same,% cleavage at 5 mM,[3],40%
same,"X-ray crystal structure, 1.91 Å",[4],"In this post-cleavage state of hASNase3, glycine bound at the active site"
N[C@@H](CO)C(=O)O [serine],"inhibition, concentration-dependent",[1],"glycolate, glyoxylate, oxalate, L-aspartate, and serine showed a concentration-dependent effect"
O=CC(=O)O [glyoxylate],"inhibition, concentration-dependent",[1],"glycolate, glyoxylate, oxalate, L-aspartate, and serine showed a concentration-dependent effect"
N[C@@H](CC(=O)O)C(=O)O [L-aspartate],"inhibition, concentration-dependent",[1],"glycolate, glyoxylate, oxalate, L-aspartate, and serine showed a concentration-dependent effect"
NC(=O)C[C@H](N)C(=O)O [asparagine],asparaginase activity assay,[5],The measured asparaginase activity of hASNase3 was proportional to the amount of cleaved enzyme
O=C(O)C(=O)O [oxalate],"inhibition, concentration-dependent",[1],"glycolate, glyoxylate, oxalate, L-aspartate, and serine showed a concentration-dependent effect"
B1,binding result,[6],binds
B2,binding result,[7],binds
